Test results reported in the CheMixHub viscosity set.

Assay: xn = mol fraction of the nth substance listed

COCCOC + CCCO
viscosity [mPa·s]
Conditions | 298.15 K | 308.15 K
101 kPa, x1 = 0.0072 | 1.874 | 1.467
101 kPa, x1 = 0.01 | 1.864 | 1.448
101 kPa, x1 = 0.0347 | 1.697 | 1.336
101 kPa, x1 = 0.0524 | 1.598 | 1.274
101 kPa, x1 = 0.06899 | 1.588 | –
101 kPa, x1 = 0.0834 | 1.443 | 1.16
101 kPa, x1 = 0.1171 | 1.304 | 1.055
101 kPa, x1 = 0.1378 | 1.223 | 1.008
101 kPa, x1 = 0.1429 | 1.264 | –
101 kPa, x1 = 0.1976 | 1.05 | 0.902
101 kPa, x1 = 0.2223 | 1.056 | –
101 kPa, x1 = 0.2436 | 0.946 | 0.816
101 kPa, x1 = 0.2925 | 0.879 | 0.741
101 kPa, x1 = 0.3078 | 0.8591 | –
101 kPa, x1 = 0.3507 | 0.807 | 0.682
101 kPa, x1 = 0.4001 | 0.7303 | –
101 kPa, x1 = 0.4082 | 0.747 | 0.645
101 kPa, x1 = 0.4355 | 0.695 | 0.622
101 kPa, x1 = 0.4665 | 0.684 | 0.601
101 kPa, x1 = 0.5001 | 0.6269 | –
101 kPa, x1 = 0.5064 | 0.635 | 0.579
101 kPa, x1 = 0.5539 | 0.604 | 0.557
101 kPa, x1 = 0.605 | 0.573 | 0.533
101 kPa, x1 = 0.6088 | 0.5528 | –
101 kPa, x1 = 0.6728 | 0.54 | 0.508
101 kPa, x1 = 0.7247 | 0.519 | 0.495
101 kPa, x1 = 0.7273 | 0.4945 | –
101 kPa, x1 = 0.7669 | 0.503 | 0.483
101 kPa, x1 = 0.8206 | 0.488 | 0.475
101 kPa, x1 = 0.8572 | 0.4482 | –
101 kPa, x1 = 0.8747 | 0.473 | 0.479
101 kPa, x1 = 0.9605 | 0.461 | 0.45
101 kPa, x2 = 0.0061 | 0.452 | 0.448
101.33 kPa, x1 = 0.0095 | 1.881 | –
101.33 kPa, x1 = 0.0215 | 1.798 | –
101.33 kPa, x1 = 0.0405 | 1.678 | –
101.33 kPa, x1 = 0.0628 | 1.552 | –
101.33 kPa, x1 = 0.0941 | 1.397 | –
101.33 kPa, x1 = 0.1096 | 1.329 | –
101.33 kPa, x1 = 0.1355 | 1.228 | –
101.33 kPa, x1 = 0.1741 | 1.109 | –
101.33 kPa, x1 = 0.2034 | 1.024 | –
101.33 kPa, x1 = 0.2436 | 0.942 | –
101.33 kPa, x1 = 0.2926 | 0.842 | –
101.33 kPa, x1 = 0.3474 | 0.764 | –
101.33 kPa, x1 = 0.3848 | 0.722 | –
101.33 kPa, x1 = 0.4255 | 0.678 | –
101.33 kPa, x1 = 0.4764 | 0.636 | –
101.33 kPa, x1 = 0.5241 | 0.6 | –
101.33 kPa, x1 = 0.57 | 0.572 | –
101.33 kPa, x1 = 0.6239 | 0.536 | –
101.33 kPa, x1 = 0.6795 | 0.509 | –
101.33 kPa, x1 = 0.7142 | 0.495 | –
101.33 kPa, x1 = 0.7632 | 0.476 | –
101.33 kPa, x1 = 0.8198 | 0.459 | –
101.33 kPa, x1 = 0.8625 | 0.447 | –
101.33 kPa, x1 = 0.9004 | 0.439 | –
101.33 kPa, x1 = 0.9269 | 0.435 | –
101.33 kPa, x1 = 0.959 | 0.427 | –
101.33 kPa, x2 = 0.0158 | 0.424 | –
